# Test results published in patent US6369096B1, “Benzyloxy prodigiosine compounds” (Pharmacia & Upjohn S.p.A., priority 1998, dated 2002).
# Like-named read-outs stand apart in the source and are kept apart here.
# How the values were obtained:
# [1] = tested on: female C57 Bl/6 mice primed and challenged with sheep red blood cells (SRBC); assay: DTH (Delayed-Type Hypersensitivity) assay; format: in vivo; conditions: given daily for six days, dose reducing footpad thickness increase by 30% vs controls
# Description: The immunosuppressive activity of the compounds of the invention was evaluated in vivo by DTH (Delayed-Type Hypersensitivity) assay. According to the test, sheep red blood cells (SRBC) (1×10^5 cells) suspended in 500 mcL saline, were injected i.v. into the tail vein of female C57 Bl/6 mice (8-9 week old). Five days later 1×10^8 SRBC suspended in 50 mcL saline were injected into the left hind footpad. The increase in footpad thickness was measured with a dial micrometer 24 h after challenge. The test compounds were given daily for six days at different doses starting on the day of priming. Activity was expressed as ED30 (dose able to reduce by 30% the thickness increase compared to controls).
# [2] = In vivo bioavailability evaluation (pharmacokinetics and oral bioavailability); conditions: 10 mg/kg, male Lewis rat, iv 1 mg salt/kg, oral 10 mg salt/kg, read-out: F % (bioavailability)
# Description: Aim of the study is to determine the pharmacokinetics and the oral bioavailability of the instant prodigiosine compounds in rats.
# Species/strain/sex: rat/Lewis/male
# No. formulations: 1 oral; 1 intravenous
# No. animals/formulation: 3+2 controls (+an ulterior rat treated with the iv formulation); total 9
# Dosages: iv: 1 mg salt/kg; oral: 10 mg salt/kg
# Vehicles: iv: a solution at the conc. of 5 mg/ml in PEG 400/Tween 80 (6:1 v:v) was prepared, then diluted with dextrose at the final concentration of 0.5 mg/ml; oral: a solution at the concentration of 5 mg/ml in Cremophor ELP/EtOH abs (6.5:3.5 v:v) was prepared, then diluted with saline at the final concentration of 1 mg/ml
# Experimental: Three cannulated rats/formulation were treated. One rat/formulation was only treated with the vehicle, as basal sample. The intravenous administration was given into the caudal vein as bolus; the oral administration by gastric gavage as solution. […] Plasma was immediately obtained by centrifugation (10000 rpm for 3 min) and stored in labelled tubes at −30° C. till analysis.
# Analytical assay: the extraction of the compounds was performed by protein precipitation by adding 100 mcl of acetonitrile to 25 mcl of plasma. The concentrations of the compounds (as free bases) in plasma were determined by LC-MS method. Column: APEX CN RP 5 mc, 10×4 mm (Jones chromatography); mobil phase: 70% acetonitrile/30% 1 mM ammonium formate +0.01% triethylamine adjusted to pH 2.0 with formic acid; flow rate: 1 ml/min; injection volume: 10 mcL; oven temperature: 45° C.; MS detection by APCI using MRM positive ion; MRM transition: 330 m/z>239 m/z, retention time: 1.4 min; LLOQ: 5.03 ng/ml; ULOQ: 10060 ng/ml. Bioavailability is expressed in following Table 1 as F %. ClogP is a lypophylic index, related to octanol/water partition coefficient.
# [3] = tested on: Th murine cells D10-G4.1 (ATCC TIB 224); assay: Inhibition of IL-2 proliferation induced activity (3H-TdR uptake); format: cell-based; conditions: for 3HTdR uptake: mean cpm from triplicate wells, 48 h
# Description: The Th murine cells D10-G4.1 (ATCC TIB 224) are IL-2 dependent for their growth. They are cultured in complete RPMI 1640 medium enriched with rhIL-2 (6 ng/ml) and ConA (6 ng/ml). For testing the inhibitory effects of the compounds of the invention on IL-2 activity, D 10 cells are washed twice with complete medium, resuspended at 10^5 cells/ml in the same medium and triplicately distributed (10^4 cells/well) in flat bottomed 96 well plates. […] and […] at different concentrations are simultaneously added to the cells. The cultures are then incubated at 37° C. in a humidified 5% CO2 incubator for 48 h, the last 18 h in the presence of 0.2 µCi of ^3H-TdR. Uptake of 3H-TdR in the cells (cpm) is taken as a measure of cell proliferation.
SMILES,DTH ED30 iv [1] [mg/kg],DTH ED30 os [1] [mg/kg],bioavailability ([2]; plasma) [%],bioavailability ([2]; in vivo) [%],% inhibition vs vehicle ([3]; 1 ng/ml) [%],3HTdR uptake ([3]; 1 ng/ml) [cpm],% inhibition vs vehicle ([3]; 3 ng/ml) [%],3HTdR uptake ([3]; 3 ng/ml) [cpm],% inhibition vs vehicle ([3]; 10 ng/ml) [%],3HTdR uptake ([3]; 10 ng/ml) [cpm],% inhibition vs vehicle ([3]; 30 ng/ml) [%],3HTdR uptake ([3]; 30 ng/ml) [cpm]
"CCCCCC1=NC(=Cc2[nH]c(-c3ccc[nH]3)cc2OCc2ccccc2)C=C1.Cl [PNU 169417, 4-benzyloxy-5-[(5-pentyl-2H-pyrrol-2-ylidene)methyl]-2,2′-bi-1H-pyrrole, hydrochloride]",1.1,4.4,18,,,,,,,,,
"CCCCCCCCCCCC1=NC(=Cc2[nH]c(-c3ccc[nH]3)cc2OCc2ccccc2)C=C1.Cl [PNU 156804, 4-benzyloxy-5-[(5-undecyl-2H-pyrrol-2-ylidene)methyl]-2,2′-bi-1H-pyrrole, hydrochloride, reference compound]",0.44,18.7,,7,,,,,,,,
"CC1=NC(=Cc2[nH]c(-c3ccc[nH]3)cc2OCc2ccccc2)C=C1.Cl [PNU 168727, 4-benzyloxy-5-[(5-methyl-2H-pyrrol-2-ylidene)methyl]-2,2′-bi-1H-pyrrole, hydrochloride]",1.7,5.3,35,,5,58245,11,54594,87,8100,100,52
